Source: US5773014A, “Compositions and methods for inhibiting the formation of unwanted skin pigmentation” (priority 1996, dated 1998)
In brackets after ≈: the same amount, converted by molar mass.

Tests used:
tyrosinase = assay: in vitro tyrosinase inhibition (dopachrome formation from L-Dopa, spectrophotometry at 475 nm); format: biochemical
Excerpt: Tyrosinase catalyzes the formation of L-dopaquinone, and then dopachrome (in the eumelanin pathway), from L-Dopa. […] Comparisons in the rate at which this colored substance appears in the presence of a candidate whitening material indicate the effect of the material on enzymatic activity; complete absence of dopachrome reflects total inhibition of tyrosinase.

cells in a culture = details: reported for other skin whiteners; cited from earlier work
solubility = format: physicochemical; details: read-out: max. solubility
human skin explants = details: 0.55% (w/v), positive control; L-Dopa 0.05M, 15 hours at 37° C.
Method: The anti-tyrosinase activity of the invention was also evaluated using an ex vivo tissue model by exposing human skin explants to the material. […] Oxidation of L-Dopa by tyrosinase produces in the melanocyte an observable black pigment, which can easily be detected by optical microscopy. Tyrosinase activity can be measured by the intensity of the observed coloration.
A positive control and a negative control were also conducted in the same experiment. […] The explants, each exposed to a different test solution, were incubated with L-Dopa (0.05M) for 15 hours at 37° C. After fixation and inclusion in paraffin, the skin slices were colored with hemalun/eosin/safran and cresyl violet, and observed by optical microscopy under white light.

Structure (SMILES)	Tyrosinase Inhibition (%) (tyrosinase; concentration 0.1%)	IC50 (cytotoxicity, kills more than 50% of the cells in a culture) (cells in a culture) [µg/mL]	Tyrosinase Inhibition (%) (tyrosinase; concentration 1%)	Tyrosinase Inhibition (%) (tyrosinase; concentration 5%)	also measured
O=C1O[C@H]([C@@H](O)CO)C(O)=C1O [Ascorbic acid, ascorbic acid]	66	880	–	–	–
O=C(O)CN(CCN(CC(=O)O)CC(=O)O)CC(=O)O [EDTA, ethylenediaminetetraacetic acid]	0	–	47.3	78.9	–
OC[C@H]1O[C@@H](Oc2ccc(O)cc2)[C@H](O)[C@@H](O)[C@@H]1O [Pure Arbutin, arbutin]	–	–	–	45	solubility (solubility): 50 mg/mL (≈ 184 mM); Tyrosinase Inhibition (%) (tyrosinase; concentration 0.2%): 20%; Tyrosinase Inhibition (%) (tyrosinase; concentration 0.5%): 25%; Tyrosinase Inhibition (%) (tyrosinase; concentration 2.5%): 35%
Oc1ccc(O)cc1 [hydroquinone]	–	5.5	–	–	formation of melanin in explant melanocytes (human skin explants): completely inhibited the formation of melanin; tyrosinase-inhibiting activity (in words) (tyrosinase; tested at different concentrations (FIG. 1)): exhibits no tyrosinase-inhibiting activity
O=c1cc(CO)occ1O [kojic acid]	71	–	80	–	–
CCCCC/C=C\C/C=C\CCCCCCCC(=O)O [linoleic acid]	–	2.8	–	–	–
